Like-named read-outs stand apart in the source and are kept apart here.
Assays:
recombinant HparOBP14 = recombinant HparOBP14 (Holotrichia parallela, UniProt A0A0G2YD86); assay: biochemical; format: binding
Experimental: To determine the affinity of HparOBP14 to odorant volatiles, the fluorescent displacement binding assay was carried out. A total of 27 compounds was selected, including 7 compounds from host plant (elm) volatiles, 11 compounds from organic fertilizer volatiles, and 9 compounds common in both of them. The odorant compounds (purity ≥95%) were purchased from Sigma-Aldrich. The fluorescent probe N-phenyl-1-naphthylamine (1-NPN) was dissolved in methanol (chromatographic grade) to a final concentration of 1 mM and used as the stock solution. The stock solution of the purified protein was diluted with Tris-HCl (50 mmol/L, pH 7.4) to a final concentration of 2 μM and added into a colorimetric plate cuvette. The 1-NPN stock solution was then successively added to the protein solution to the final concentrations ranging from 2 μM to 20 μM. The fluorescence changes were recorded to get K1-NPN, the dissociation constant of the complex HparOBP14/1-NPN.
The binding ability of HparOBP14 to the odorant compounds was determined by titrating the mixture of the protein and the 1-NPN (final concentration 2 μM of both) with each odorant compound at final concentrations ranging from 2 μM to 40 μM. The competitive dissociation constant was calculated from the corresponding IC50 values using the following equation: Ki = [IC50]/(1+ [1-NPN]/K1-NPN), where [1-NPN] is the free concentration of 1-NPN; K1-NPN is the dissociation constant of the complex HparOBP14/1-NPN.
The fluorescence changes during the binding of either 1-NPN or odorant compounds to the HparOBP14 protein were measured and recorded with the excitation wavelength of 337 nm and within a wavelength range of 350~550 nm by a 970CRT fluorescence spectrophotometer (Yidian Analytical Instrument Company, Shanghai, China).

[1] = test system: female Holotrichia parallela adults; assay: Y-tube olfactometer behavioral bioassay; format: in vivo; conditions: for change of attraction after injection of dsHparOBP14: dsHparOBP14-injected females; for behavioral response of uninjected female beetles: uninjected females, vs paraffin oil
Experimental: (§1) The dsRNAs of HparOBP14 and GFP (GenBank number: ACY56286) (for primers, see Table S1) were synthesized using a T7 Ribo MAX™ Express RNAi System (Promega, Madison, WI, USA) according to the manufacturer’s instructions. The GFP-dsRNA was used as the negative control. Nine-to-eleven-day-old female adult beetles were injected with 2 μg dsRNA into the adult head with a 5 μL injection needle (7000 series syringes, Hamilton, USA), then kept under the same condition as 2.1 described above. The antennae were dissected at 24 h, 48 h, 72 h, and 96 h after injection, and the samples were stored at −80 °C for further RT-qPCR analyses.
The Y-tube olfactometer mainly consisted of a Y-shaped glass tube (main arm, 30 cm; sidearm, 20 cm; inner diameter, 2.5 cm; side arm angle, 60 degrees), an air sampler, a drying tower, a gas scrubber, and a flow meter. Two gas-washing cylinders were successively connected with the flow meter, drying tower, air pump, and Y-shaped glass tube through rubber pipes. The testing compound (concentration 1 μg/μL in paraffin oil) and paraffin oil (as control) were taken and dropped respectively into a rubber septum (Pherobio Technology Co., Ltd., Beijing, China) and placed respectively into the side arms of the Y-tube. The flow rate of the atmospheric air sampler was adjusted to 500 mL/min.
A female adult beetle was introduced into the main arm at the downwind end of the Y-olfactometer. Each beetle was given 5 min to respond to the treatment, and the first choice that the beetle made for each of the lateral arms was recorded. The response was regarded as valid only if the beetle crawled more than 3 cm into a lateral arm and stayed for more than 1 min.
For each compound, more than 90 beetles were tested individually until 90 responsive beetles were obtained. Each individual beetle was tested only once, and the Y-olfactometer was replaced after every 10 beetles were tested to eliminate the odor effect. The number of individual beetles that selected the compound-treated arm of the Y-olfactometer was statistically compared with the number of beetles that selected the solvent-treated arm using a Chi-square goodness of fit test.

[2] = test system: antennae of H. parallela female adults; assay: Electroantennogram (EAG) recording after dsRNA injection; format: in vivo, Holotrichia parallela; conditions: 20 μL of 1 μg/μL in paraffin oil; for change of EAG responsive amplitude in dsHparOBP14-injected insects compared to uninjected control: 48 h after dsHparOBP14 injection
Experimental: as §1
The EAG recording was conducted on the adult antennae with the EAG micromanipulator MP-15 and analyzed with EAG-Pro (Syntech, Kirchzarten, Germany). Briefly, two ends of the antennae were set on electrode holders with a conductive adhesive (Spectra 360 electrode gel). An ashless filter paper (Hangzhou Special Paper Co., Ltd., Hangzhou, China) was cut into strips (3 cm × 0.5 cm). A 20 μL compound solution (concentration 1 μg/μL in paraffin oil) was applied onto the paper strip which was then placed in a Pasteur tube (17 cm × […]) and applied to the antennae by purified air at a flow rate of 1 L/min. The paraffin oil (20 μL) was used as a control. The stimulus recording time was 0.5 s and the interval between two stimulations was more than 1 min.

[3] = HparOBP14 and 1-NPN 2 µM each, titrated with compound 2–40 μM

recombinant HparOBP14, sequence (A0A0G2YD86 entry or part of it): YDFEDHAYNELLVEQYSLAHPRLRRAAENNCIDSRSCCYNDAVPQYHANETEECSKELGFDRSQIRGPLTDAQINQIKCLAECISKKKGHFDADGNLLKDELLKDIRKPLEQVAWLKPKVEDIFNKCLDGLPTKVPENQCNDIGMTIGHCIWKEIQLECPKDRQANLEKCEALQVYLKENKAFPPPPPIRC

| SMILES | IC50 (recombinant HparOBP14) [µM] | Ki (recombinant HparOBP14) [µM] | Int (%): relative fluorescence intensity of 1-NPN/HparOBP14 complex after the addition of testing compound (recombinant HparOBP14; [3]) [%] | change of attraction after injection of dsHparOBP14 [1] | behavioral response of uninjected female beetles [1] | change of EAG responsive amplitude in dsHparOBP14-injected insects compared to uninjected control [2] | IC50 (recombinant HparOBP14; HparOBP14 and 1-NPN 2 µM each, titrated with compound 2–40 μM, read-out: IC50) [µM] | Ki (recombinant HparOBP14; calculated from IC50: Ki = [IC50]/(1+[1-NPN]/K1-NPN), read-out: Ki) [µM] | EAG response ([2]; female adults) |
| --- | --- | --- | --- | --- | --- | --- | --- | --- | --- |
| CC1=CCC2CC1C2(C)C (stereo not drawn) [α-pinene] | 38.5 | 32.8 | 67.49 | significantly increased | attracted | decreased significantly |  |  |  |
| Cc1c[nH]c2ccccc12 [3-methylindole] |  |  | 56.22 | no obvious change | attracted | do not change significantly | 24.6 | 21 | clear responses |
